In PMC12472753, “Fused Imidazotriazole-Based Therapeutics: A Multidisciplinary Study Against Diabetes-Linked Enzymes Alpha-Amylase and Alpha-Glucosidase Using In Vitro and In Silico Methods” (Pharmaceuticals, 2025) one finds IC50 data, which are given here for one substance.

One experiment concerns the target T1, α-amylase (Sus scrofa, UniProt P00690).
T1 sequence (P00690 16-511): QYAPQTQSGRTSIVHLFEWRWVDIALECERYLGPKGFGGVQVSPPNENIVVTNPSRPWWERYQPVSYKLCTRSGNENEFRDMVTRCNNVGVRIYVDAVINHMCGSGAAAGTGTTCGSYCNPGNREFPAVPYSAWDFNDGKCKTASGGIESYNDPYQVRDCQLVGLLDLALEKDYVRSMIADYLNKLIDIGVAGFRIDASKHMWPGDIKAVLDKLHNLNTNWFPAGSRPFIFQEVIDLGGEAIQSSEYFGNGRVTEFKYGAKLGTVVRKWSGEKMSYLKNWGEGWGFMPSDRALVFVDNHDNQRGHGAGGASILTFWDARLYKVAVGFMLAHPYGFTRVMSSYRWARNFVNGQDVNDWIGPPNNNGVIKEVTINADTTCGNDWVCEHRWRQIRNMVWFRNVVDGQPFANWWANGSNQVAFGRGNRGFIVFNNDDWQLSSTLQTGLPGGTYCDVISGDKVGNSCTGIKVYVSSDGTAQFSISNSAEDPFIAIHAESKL
Nature of the experiment: Alpha-amylase inhibition assay (DNS method). It is filed as biochemical. Conditions: in vitro, triplicate; read-out: IC50 = α-Amylase µM ± SEM.

The target of the next experiment is α-glucosidase (Saccharomyces cerevisiae, UniProt P53341). In kind it is biochemical. Conditions: in vitro, triplicate; read-out: IC50 = α-Glucosidase µM ± SEM.
Sequence of α-glucosidase (P53341 whole entry): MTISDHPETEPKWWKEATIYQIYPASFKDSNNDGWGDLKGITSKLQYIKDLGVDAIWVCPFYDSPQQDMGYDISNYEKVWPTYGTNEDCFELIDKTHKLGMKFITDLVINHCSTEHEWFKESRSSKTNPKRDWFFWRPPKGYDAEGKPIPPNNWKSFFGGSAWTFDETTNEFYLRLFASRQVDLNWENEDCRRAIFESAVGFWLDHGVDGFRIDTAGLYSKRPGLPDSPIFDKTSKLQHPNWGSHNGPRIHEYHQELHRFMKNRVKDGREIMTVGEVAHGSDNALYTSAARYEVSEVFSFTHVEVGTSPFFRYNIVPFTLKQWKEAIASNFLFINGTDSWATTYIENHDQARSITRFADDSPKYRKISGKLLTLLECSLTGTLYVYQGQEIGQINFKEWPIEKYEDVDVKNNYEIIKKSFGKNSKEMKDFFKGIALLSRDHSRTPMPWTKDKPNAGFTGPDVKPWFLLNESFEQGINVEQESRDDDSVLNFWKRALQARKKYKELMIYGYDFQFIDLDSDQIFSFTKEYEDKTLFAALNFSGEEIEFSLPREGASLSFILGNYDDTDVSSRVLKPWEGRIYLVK

Method for α-amylase: The in vitro alpha-amylase study was conducted and the enzyme was sourced from Merck (Sigma-Aldrich, Hamburg, Germany). The inhibitory activity of the synthesized compounds against α-amylase was evaluated using a standard protocol with slight modifications [44]. In brief, 250 µL of the test compound (prepared at varying concentrations, 50–250 µg/mL) was mixed with 250 µL of starch solution [1% (w/v)] and 250 µL of α-amylase solution (1 U/mL). The reaction mixture was incubated at 20 °C for 3 min, after which enzymatic activity was terminated by the addition of 500 µL of dinitrosalicylic acid (DNS) color reagent. The mixture was then heated in a boiling water bath at 85 °C for 15 min, cooled to room temperature for 5 min, and diluted with 4.5 mL of distilled water to a final volume of 6.0 mL. Absorbance was measured at 540 nm using a UV-visible spectrophotometer. […] The percentage inhibition was calculated and all experiments were conducted in triplicate.
Method for α-glucosidase: The in vitro alpha-glucosidase study was conducted and the enzyme was sourced from Merck (Sigma-Aldrich). The α-glucosidase inhibitory activity was determined following a standard microplate-based method [45]. In each well of a 96-well plate, 35 µL of phosphate buffer (pH 6.8), 31 µL of the test compound solution (50–250 µg/mL), and 18 µL of p-nitrophenyl-α-D-glucopyranoside (pNPG, substrate) were added and pre-incubated at 37 °C for 5 min. The reaction was initiated by the addition of 16 µL of α-glucosidase (0.15 U/mL in phosphate buffer), resulting in a total assay volume of 100 µL. After incubation, the reaction was terminated by adding 100 µL of sodium carbonate (200 mM), and absorbance was recorded at 405 nm using a microplate reader. […] The percentage inhibition was calculated according to the following equation: % inhibition=(Abs control − Abs sample)/Abs control×100
All assays were performed in triplicate to ensure reproducibility.

With “5-(2,4-Dihydroxy-5-methylphenyl)-6H-imidazo{1,2-b]{1,2,4]triazole-2-carboxylic acid [Compound 7]”, the IC50 – broadly, the concentration at which inhibition is half-maximal – is 7.1 ± 0.3 µM on α-amylase and 7.7 ± 0.2 µM on α-glucosidase.
